Here are results for three molecules from publication PMC9180621, “Preparation of Novel Pyrazolo[4,3-e]tetrazolo[1,5-b][1,2,4]triazine Sulfonamides and Their Experimental and Computational Biological Studies” (International Journal of Molecular Sciences, 2022).

For data set [1], the system named is PC-3 cells. As to the kind of experiment: Annexin V-FITC/propidium iodide flow cytometry, apoptosis. Type of data set: cell-based, human. The conditions noted are these: PC-3, 48 h incubation, Annexin V-FITC, ± SD, control 8.37 ± 1.06%. Here is the method: (§1) Data are presented as mean percentage of apoptotic cells (early and late apoptotic) ± SD values. The differences between the experimental samples and vehicle control were evaluated by the ANOVA test followed by Tukey’s test (p < 0.05). Experiments were performed in triplicate. For flow cytometry analysis with Annexin V-FITC staining, the approximate number of analyzed cells was (N = 1 × 10^4), contrasting with the dual acridine orange/ethidium bromide (AO/EB) fluorescent staining (N = 200).
(§2) The Annexin V-FITC Apoptosis Detection Kit was used to estimate the apoptosis induction following 24 and 48 h incubation with the tested MM-compounds. During apoptosis, phosphatidylserine is transformed from the inner cell membrane to the cell surface, which can be detected by the annexin-FITC complex. The addition of propidium iodide to the reaction mixture allows the assessment of cell membrane integrity. Using flow cytometry analysis, four subpopulations of cells can be distinguished: alive (non-stained), necrotic (propidium iodide stained), early apoptotic (annexin V stained cells), or late-apoptotic cells (propidium iodide and annexin V stained). BxPC-3 and PC-3 cells were seeded at appropriate density on a 6-well plate (Table 9).
(§3) The experimental design included vehicle control (final solvent concentration was < 0.5% v/v DMSO), and cells treated with 2 µM SN-38 (active metabolite of irinotecan) used as a positive compensation control. Cells were left for incubation for another 24 or 48 h (37 °C; 5% CO2). After exposure, cells were trypsinized and transferred to cytometric tubes, left for 40 min, and centrifuged at 1400 rpm for 10 min at 4 °C. Afterward, the supernatant was removed, and the precipitate was diluted in 1 mL of PBS. The rest of the procedure was performed according to the manufacturer’s instructions. The results were obtained from three independent experiments.
(In general: A flow cytometer gives signals particle by particle.)

For data set [2], the system named is BxPC-3 cells. The data set is described as above. The conditions noted are these: IC50 concentration, Annexin V-FITC, ± SD. Type of data set: cell-based, human. Here is the method: as §1, §2, §3
In data set [3] the test system is PC-3 cells. The data set is described as follows: MitoTracker Red, mitochondria membrane potential. Type of data set: cell-based, human. Here is the method:
(§4) The fitness of the mitochondria and changes in MMP were assessed using MitoTracker Red. Data for experimental groups were presented as mean percentage of control group fluorescence intensity ± SD value (Figure 11, Table 2). Mitotracker Red is deposited in the mitochondrial matrix in response to changes in the inner transmembrane potential of the mitochondria. The intensity of fluorescence reflects the fitness of the mitochondria and alters with changes in MMP [91]. BxPC-3 and PC-3 cells were seeded at appropriate density on a 96-well plates (Table 9). […] After appropriate incubation time, cells were incubated with MitoTracker Red (0.1 µM/200 µL PBS/well) for 40 min. Afterward, MitoTracker Red solution was removed from the wells and PBS (200 µL/well) was added. Fluorescence was read at an […] of 581/644 nm using the SpectraMax® i3x Multi-Mode Detection Platform.

The test system of data set [4] is BxPC-3 cells. As to the kind of experiment: MitoTracker Red, mitochondria membrane potential. Type of data set: cell-based, human. As to the method:
as §4

Data set [5] has as its system PC-3 cells. As to the kind of experiment: MTT assay, cell viability. Type of data set: cell-based, human. The conditions noted are these: for IC50: Homo sapiens, PC-3, 72 h incubation, MTT, ± SD. As to the method: (§5) A statistical program (Graphpad Prism 7) was used to analyze obtained data (MTT test). The dose–response analysis was performed to estimate the inhibitory concentration (IC50) of the tested compounds. The IC50 value is defined as a concentration of the tested compound that leads to a reduction in cell pool viability by 50% compared to the negative control (accepted as 100%). % cell viability=Absorbance value of treated cells−Absorbance value of blank/Absorbance value of untreated cells−Absorbance value of blank×100%
(§6) To estimate cell viability following 72 h incubation with the tested MM-compounds (MM134, MM136, MM137, and MM139), the MTT test was used according to the PN-EN ISO 10993-5. It is a quantitative method based on the tetrazolium yellow dye MTT [3(4,5-dimethyl-2-thiazolyl)-2,5-diphenyl-2H-tetrazolium bromide], which is converted by living cells to a purple product, formazan, the concentration of which was measured colorimetrically. The MTT assay was performed according to the procedure described by Mosmann with modifications. At a density of approximately 8 × 10^3 cells per 100 µL/well, 96-well plates were seeded. Following the given incubation period in controlled conditions (37 °C; 5% CO2), cells were exposed to different concentrations of tested compounds in DMSO (range 0.05–3 µM) in a volume of 100 µL medium per well. Final solvent concentration of DMSO was < 0.5% v/v. The experimental design included vehicle controls and blanks (wells without cells).
(§7) After 72 h of incubation of cells with tested MM-compounds, 20 µL of MTT tetrazolium salt (5 mg/mL in PBS) was added to each well, and plates were incubated once again in a humidified atmosphere for 3 h (37 °C; 5% CO2). Following the incubation time, the solutions were removed and 100 µL of DMSO was added to dissolve the formazan complexes. Subsequently, a spectrophotometer (microplate reader Power Wave XS BioTek Instruments, Inc., Winooski, VT, USA) reading was performed at 570 nm. The experiments were performed in duplicates.

Data set [6] has as its system BxPC-3 cells. As to the kind of experiment: MTT assay, cell viability. Type of data set: cell-based. The conditions noted are these: Homo sapiens, BxPC-3, 72 h incubation, ± SD. Here is the method: as §5, §6, §7
For orientation: Tetrazolium dyes change colour on reduction, which living cells bring about.

The test system of data set [7] is WI-38 cells. The data set is described as follows: MTT assay, cell viability. The conditions noted are these: WI-38 normal human fibroblasts, 72 h incubation, ± SD. Type of data set: cell-based. As to the method: as §5, §6, §7
Data set [8] concerns L929 cells. The data set is described as follows: MTT assay, cell viability. Type of data set: cell-based. The conditions noted are these: L929 normal mouse fibroblasts, 72 h incubation, ± SD. As to the method:
as §5, §6, §7

Setting [9] is: BxPC-3, 24 h incubation, control 10.3 ± 2.09%.
Setting [10] is: BxPC-3, 48 h incubation, control 8.3 ± 1.13%.
[11] abbreviates: PC-3, 24 h incubation, 0.5IC50, ± SD.
Setting [12] is: PC-3, 24 h incubation, 2xIC50, ± SD.
The mark [13] stands for this setting: PC-3, 24 h incubation, IC50, ± SD.
[14] abbreviates: PC-3, 48 h incubation, 0.5IC50, ± SD.
Where [15] appears, read: PC-3, 48 h incubation, 2xIC50, ± SD.
Setting [16] is: PC-3, 48 h incubation, IC50, ± SD.
The mark [17] stands for this setting: BxPC-3, 24 h incubation, 0.5IC50, ± SD.
Where [18] appears, read: BxPC-3, 24 h incubation, 2xIC50, ± SD.
The mark [19] stands for this setting: BxPC-3, 24 h incubation, IC50, ± SD.
Where [20] appears, read: BxPC-3, 48 h incubation, 0.5IC50, ± SD.
Where [21] appears, read: BxPC-3, 48 h incubation, 2xIC50, ± SD.
Where [22] appears, read: BxPC-3, 48 h incubation, IC50, ± SD.

Structures are written as SMILES. Values joined by “and” are separate entries in the source; they are usually repeats but may differ in a detail not shown here. Identical values can stand only once.

The term IC50 denotes the midpoint of a concentration-inhibition curve. The low end stands for inhibition by little substance, the high end for a need for much substance. For `Cc1nn(-c2ccc(S(=O)(=O)NCCN3CCOCC3)cc2)c2nn3nnnc3nc12` [MM134], the entries for the “mean percentage of apoptotic cells (early and late apoptotic)” value (“mean percentage of apoptotic cells” for short) in data set [1] (2xIC50 concentration), in data set [2] (setting [9]) and in data set [2] (setting [10]) were 20.37 ± 2.5%, 65.3 ± 9.1% and 86.9 ± 1.16%, respectively. In addition, the “mean percentage of control group fluorescence intensity (MMP)” value (“mean percentage … (MMP)” for short) in data set [3] (setting [11]) was found to be 100.35 ± 1.57%; in data set [3] (setting [12]), 82.34 ± 2.13%; in data set [3] (setting [13]), 82.5 ± 2.21%; in data set [3] (setting [14]), 82.1 ± 14.45%; in data set [3] (setting [15]) it was 64.56 ± 3.33%; in data set [3] (setting [16]) it was 80.26 ± 13.44%. Further, the “mean percentage … (MMP)” value in data set [4] (setting [17]) turned out to be 88.19 ± 13.62%; in data set [4] (setting [18]), 78.31 ± 14.34%; in data set [4] (setting [19]), 81.23 ± 11.94%; in data set [4] (setting [20]) it was 79.98 ± 11.47%; in data set [4] (setting [21]), 68.95 ± 7.78%; in data set [4] (setting [22]), 66.04 ± 16.7%. For the same molecule, the IC50 in data set [5] came out at 160 ± 20 nM; in data set [6], 320 ± 100 nM; in data set [7], 650 ± 70 nM; in data set [8] it was 580 ± 5 nM. In addition, in data set [5] (ratio of MTT IC50, PC-3 vs WI-38), the “times higher cytotoxic activity in PC-3 compared to normal human fibroblasts (WI-38)” value is 4 times.

Consider `Cc1nn(-c2ccc(S(=O)(=O)N3CCN(C)CC3)cc2)c2nn3nnnc3nc12` [MM137], for which the “mean percentage of apoptotic cells” value in data set [1] (2xIC50 concentration) worked out at 38.93 ± 4%; in data set [1] (IC50 concentration), 22.57 ± 3.18%; in data set [2] (setting [9]), 18.9 ± 2.95%; in data set [2] (setting [10]), 40.8 ± 1.36%. In addition, the “mean percentage … (MMP)” value was determined as 96.26 ± 2.83% in data set [3] (setting [11]); 82.5 ± 7.99% in data set [3] (setting [12]); 87.9 ± 2.71% in data set [3] (setting [13]); 78.26 ± 2.62% in data set [3] (setting [14]); 64.19 ± 8.72% in data set [3] (setting [15]); 75.49 ± 5.55% in data set [3] (setting [16]). In addition, the “mean percentage … (MMP)” value in data set [4] (setting [17]) came out at 89.34 ± 5.91%; in data set [4] (setting [18]), 79.22 ± 2.22%; in data set [4] (setting [19]), 79.5 ± 3.34%; in data set [4] (setting [20]), 84.62 ± 9.01%; in data set [4] (setting [21]) it was 73.8 ± 2.58%; in data set [4] (setting [22]) it was 79.8 ± 6.76%. For the same molecule, the IC50 in data set [5] came to 110 ± 7 nM; in data set [6], 160 ± 40 nM; in data set [7], 270 ± 40 nM; in data set [8], 180 ± 0.8 nM.

As for `Cc1nn(-c2ccc(S(=O)(=O)N3CCCCC3)cc2)c2nn3nnnc3nc12` [MM139], the “mean percentage of apoptotic cells” value in data set [1] (2xIC50 concentration) was 15 ± 2.42%; in data set [2] (setting [9]), 59.6 ± 7.42%; in data set [2] (setting [10]) it was 85.4 ± 6.25%. Besides, the “mean percentage … (MMP)” value was 89.2 ± 6.28% in data set [3] (setting [11]); 78.14 ± 6.56% and 78.14 ± 6.55% in data set [3] (setting [12]); 87.28 ± 15.8% in data set [3] (setting [13]); 78.91 ± 15.21% in data set [3] (setting [14]); 61.28 ± 9.16% in data set [3] (setting [15]); 65.93 ± 19.56% in data set [3] (setting [16]). Besides, the “mean percentage … (MMP)” value is recorded as 81.28 ± 14.44% in data set [4] (setting [17]); 64.23 ± 6.08% in data set [4] (setting [18]); 66.73 ± 3.72% in data set [4] (setting [19]); 76.9 ± 6.40% in data set [4] (setting [20]); 65.95 ± 12.53% in data set [4] (setting [21]); 60.35 ± 0.91% in data set [4] (setting [22]). Further, the IC50 in data set [5] was determined as 170 ± 3 nM; in data set [6], 330 ± 140 nM; in data set [7] it was 540 ± 60 nM; in data set [8], 260 ± 20 nM.
